# Assay results as given in patent publication US20240060999A1, “BLOOD COAGULATION INSPECTION METHOD” (FUJIMORI KOGYO CO., LTD, priority 2020, published 2024).
# System: whole blood
# Test: ROTEM whole blood coagulation with rabbit brain-derived tissue thromboplastin (TP) + Ca 12 mM (CTI 20 μg/mL, PKSI-527 40 μM where stated)
# Assay type: cell-based
# [1] = Ex11, TP 16.6 μg/mL+Ca+CTI+PKSI-527, heparan sulfate 1 μg/mL, no rTM
# [2] = Ex11, TP 16.6 μg/mL+Ca+CTI+PKSI-527, heparan sulfate 1 μg/mL, rTM 50 μM (title: 50 nM)
# [3] = Ex11, TP 16.6 μg/mL+Ca+CTI+PKSI-527, heparan sulfate 3 μg/mL, no rTM
# [4] = Ex11, TP 16.6 μg/mL+Ca+CTI+PKSI-527, heparan sulfate 3 μg/mL, rTM 50 μM (title: 50 nM)
# [5] = Ex11, TP 16.6 μg/mL+Ca+CTI+PKSI-527, heparan sulfate 10 μg/mL, no rTM
# [6] = Ex11, TP 16.6 μg/mL+Ca+CTI+PKSI-527, heparan sulfate 10 μg/mL, rTM 50 μM (title: 50 nM)
# [7] = Ex11, TP 16.6 μg/mL+Ca+CTI+PKSI-527, heparan sulfate 15 μg/mL, no rTM
# [8] = Ex11, TP 16.6 μg/mL+Ca+CTI+PKSI-527, heparan sulfate 15 μg/mL, rTM 50 μM (title: 50 nM)
# [9] = Ex11, TP 16.6 μg/mL+Ca+CTI+PKSI-527, heparan sulfate 20 μg/mL, no rTM
# [10] = Ex11, TP 16.6 μg/mL+Ca+CTI+PKSI-527, heparan sulfate 20 μg/mL, rTM 50 μM (title: 50 nM)
# [11] = Ex11, TP 16.6 μg/mL+Ca+CTI+PKSI-527, heparan sulfate 30 μg/mL, no rTM
# [12] = Ex11, TP 16.6 μg/mL+Ca+CTI+PKSI-527, heparan sulfate 30 μg/mL, rTM 50 μM (title: 50 nM)
# [13] = Ex12, TP 16.6 μg/mL+Ca+CTI+PKSI-527, heparan sulfate 5 μg/mL, no rTM
# [14] = Ex12, TP 16.6 μg/mL+Ca+CTI+PKSI-527, heparan sulfate 5 μg/mL, rTM 100 μM (title: 100 nM)
# [15] = Ex13, TP 0.033 μg/mL+Ca+CTI+PKSI-527, heparan sulfate 0.5 μg/mL, no rTM
# [16] = Ex13, TP 0.033 μg/mL+Ca+CTI+PKSI-527, heparan sulfate 0.5 μg/mL, rTM 9 μM (title: 9 nM)
# [17] = Ex14, TP 0.033 μg/mL+Ca+CTI+PKSI-527, heparan sulfate 0.1 μg/mL, no rTM
# [18] = Ex14, TP 0.033 μg/mL+Ca+CTI+PKSI-527, heparan sulfate 0.1 μg/mL, rTM 10 nM
# [19] = Ex14, TP 0.033 μg/mL+Ca+CTI+PKSI-527, heparan sulfate 0.2 μg/mL, no rTM
# [20] = Ex14, TP 0.033 μg/mL+Ca+CTI+PKSI-527, heparan sulfate 0.2 μg/mL, rTM 10 nM
# [21] = Ex14, TP 0.033 μg/mL+Ca+CTI+PKSI-527, heparan sulfate 0.3 μg/mL, no rTM
# [22] = Ex14, TP 0.033 μg/mL+Ca+CTI+PKSI-527, heparan sulfate 0.3 μg/mL, rTM 10 nM
# [23] = Ex14, TP 0.033 μg/mL+Ca+CTI+PKSI-527, heparan sulfate 0.4 μg/mL, no rTM
# [24] = Ex14, TP 0.033 μg/mL+Ca+CTI+PKSI-527, heparan sulfate 0.4 μg/mL, rTM 10 nM
# [25] = Ex14, TP 0.033 μg/mL+Ca+CTI+PKSI-527, heparan sulfate 0.5 μg/mL, no rTM
# [26] = Ex14, TP 0.033 μg/mL+Ca+CTI+PKSI-527, heparan sulfate 0.5 μg/mL, rTM 10 nM
# [27] = Ex15, TP 0.033 μg/mL+Ca+CTI+PKSI-527, heparan sulfate 0.1 μg/mL, no rTM
# [28] = Ex15, TP 0.033 μg/mL+Ca+CTI+PKSI-527, heparan sulfate 0.1 μg/mL, rTM 5 nM
# [29] = Ex15, TP 0.033 μg/mL+Ca+CTI+PKSI-527, heparan sulfate 0.2 μg/mL, no rTM
substance,measurement,setting,value
Heparan sulfate,clotting time (CT),"Ex3/Ex9, TP 0.9 μg/mL+Startem, heparan sulfate 1 μg/mL, rTM 20 nM",319 s
same,clotting time (CT),"Ex4, TP 0.9 μg/mL+Ca+CTI+PKSI-527, heparan sulfate 1 μg/mL, no rTM",162 s
same,clotting time (CT),"Ex9, TP 0.9 μg/mL+Startem, heparan sulfate 1 μg/mL, no rTM",154 s
same,clotting time (CT),"Ex10, TP 0.45 μg/mL+Startem, heparan sulfate 1 μg/mL, no rTM",251 s
same,CFT (clot formation time),[1],93 s
same,CT (clotting time),[1],58 s
same,CFT (clot formation time),[2],72 s
same,CT (clotting time),[2],55 s
same,CFT (clot formation time),[3],93 s
same,CT (clotting time),[3],62 s
same,CFT (clot formation time),[4],73 s
same,CT (clotting time),[4],62 s
same,CFT (clot formation time),[5],55 s
same,CT (clotting time),[5],94 s
same,CFT (clot formation time),[6],95 s
same,CT (clotting time),[6],143 s
same,CFT (clot formation time),[7],66 s
same,CT (clotting time),[7],120 s
same,CFT (clot formation time),[8],255 s
same,CT (clotting time),[8],255 s
same,CFT (clot formation time),[9],61 s
same,CT (clotting time),[9],144 s
same,CFT (clot formation time),[10],No CFT
same,CT (clotting time),[10],No CT
same,CFT (clot formation time),[11],69 s
same,CT (clotting time),[11],193 s
same,CFT (clot formation time),[12],No CFT
same,CT (clotting time),[12],No CT
same,blood clotting time,"Ex11, TP 16.6 μg/mL+Ca+CTI+PKSI-527, heparan sulfate 20 or 30 μg/mL, rTM 50 nM",≥ 1 h
same,CFT (clot formation time),[13],76 s
same,CT (clotting time),[13],65 s
same,CFT (clot formation time),[14],69 s
same,CT (clotting time),[14],96 s
same,CFT (clot formation time),[15],248 s
same,CT (clotting time),[15],837 s
same,CFT (clot formation time),[16],1484 s
same,CT (clotting time),[16],1355 s
same,CFT (clot formation time),[17],182 s
same,CT (clotting time),[17],572 s
same,CFT (clot formation time),[18],240 s
same,CT (clotting time),[18],797 s
same,CFT (clot formation time),[19],224 s
same,CT (clotting time),[19],686 s
same,CFT (clot formation time),[20],215 s
same,CT (clotting time),[20],829 s
same,CFT (clot formation time),[21],171 s
same,CT (clotting time),[21],688 s
same,CFT (clot formation time),[22],290 s
same,CT (clotting time),[22],802 s
same,CFT (clot formation time),[23],206 s
same,CT (clotting time),[23],762 s
same,CFT (clot formation time),[24],733 s
same,CT (clotting time),[24],1360 s
same,CFT (clot formation time),[25],248 s
same,CT (clotting time),[25],837 s
same,CFT (clot formation time),[26],660 s
same,CT (clotting time),[26],1266 s
same,CFT (clot formation time),[27],182 s
same,CT (clotting time),[27],572 s
same,CFT (clot formation time),[28],230 s
same,CT (clotting time),[28],711 s
same,CFT (clot formation time),[29],224 s
same,CT (clotting time),[29],686 s
same,CFT (clot formation time),"Ex15, TP 0.033 μg/mL+Ca+CTI+PKSI-527, heparan sulfate 0.2 μg/mL, rTM 5 nM",209 s
